The target in assay [1] is T1, Probable G-protein coupled receptor 139 (Homo sapiens, UniProt Q6DWJ6).
T1 sequence (Q6DWJ6 whole entry): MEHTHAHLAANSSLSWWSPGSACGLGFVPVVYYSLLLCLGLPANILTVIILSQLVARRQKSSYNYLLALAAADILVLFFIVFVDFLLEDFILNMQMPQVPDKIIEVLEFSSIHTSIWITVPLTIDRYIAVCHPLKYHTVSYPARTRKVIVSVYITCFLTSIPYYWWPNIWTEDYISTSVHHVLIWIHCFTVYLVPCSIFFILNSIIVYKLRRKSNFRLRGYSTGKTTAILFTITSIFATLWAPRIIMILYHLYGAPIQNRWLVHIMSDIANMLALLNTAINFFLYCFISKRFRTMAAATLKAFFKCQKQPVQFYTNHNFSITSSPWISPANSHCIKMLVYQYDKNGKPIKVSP
Put plainly: Agonist activity at human GPR139 expressed in CHO-K1 cells assessed as induction of beta-arrestin 2 recruitment incubated for 90 mins by PathHunter assay. Format: cell-based.

The target in assay [2] is T2, Probable G-protein coupled receptor 139 (Homo sapiens) (UniProt Q6DWJ6).
T2 sequence (whole entry): T1 sequence (Q6DWJ6 whole entry)
Put plainly: Agonist activity at human GPR139 expressed in CHO-K1 cells assessed as induction of beta-arrestin 2 recruitment incubated for 90 mins by PathHunter assay relative to JNJ63533054. Type of assay: cell-based.

Assay [3] addresses T2, Probable G-protein coupled receptor 139 (Homo sapiens). In words: Agonist activity at human GPR139 expressed in CHO-K1 cells assessed as increase in calcium flux by calcium 5 dye based FLIPR assay relative to JNJ63533054. Particulars: filed as agonist. Type of assay: functional, cell-based.
The target of assay [4] is T3, Probable G-protein coupled receptor 139 (Rattus norvegicus) (UniProt P0C0W8).
T3 sequence (whole entry): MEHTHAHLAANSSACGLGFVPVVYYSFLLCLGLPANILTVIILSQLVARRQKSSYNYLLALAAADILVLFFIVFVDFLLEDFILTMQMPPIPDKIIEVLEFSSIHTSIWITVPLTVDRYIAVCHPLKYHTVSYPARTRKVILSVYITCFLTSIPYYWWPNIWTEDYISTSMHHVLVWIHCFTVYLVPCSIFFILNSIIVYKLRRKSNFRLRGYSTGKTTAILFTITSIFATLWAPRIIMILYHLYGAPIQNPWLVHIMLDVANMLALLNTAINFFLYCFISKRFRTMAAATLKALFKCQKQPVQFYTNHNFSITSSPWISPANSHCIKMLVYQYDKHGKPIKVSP
In words: Agonist activity at rat GPR139 expressed in CHO-K1 cells assessed as increase in calcium flux by calcium 5 dye based FLIPR assay relative to JNJ63533054. Type of assay: cell-based.

Assay [5] deals with T4, Probable G-protein coupled receptor 139 (Rattus norvegicus, UniProt P0C0W8).
T4 sequence (P0C0W8 whole entry): T3 sequence (whole entry)
Put plainly: Agonist activity at rat GPR139 expressed in CHO-K1 cells assessed as increase in calcium flux by calcium 5 dye based FLIPR assay. Format: cell-based. Background: A change in cytosolic calcium serves as a functional read-out for many receptors and channels.

Assay [6] deals with T1, Probable G-protein coupled receptor 139. Put plainly: Agonist activity at human GPR139 expressed in CHO-K1 cells assessed as increase in calcium flux by calcium 5 dye based FLIPR assay. Format: functional, cell-based.

The structures appear in SMILES notation.

For `Cc1ccn2c(=O)n(CC(=O)N[C@@H](C)c3ccc(Cl)c(F)c3)nc2n1`, the results for the EC50 in assay [1] (cho-k1), in assay [5] and in assay [6] (cho-k1) were 1 nM, ≥ 100 nM and 1 nM, respectively. For the same compound, the Emax – broadly, the size of the effect at its maximum, as opposed to the concentration needed – in assay [2] is 25%; in assay [3], > 80%; in assay [4] (filed as agonist), 50%.

For the compound `C[C@H](NC(=O)Cn1nc2ccccn2c1=O)c1ccc(C(F)(F)F)cc1`, the values for the EC50 in assay [1] (cho-k1), in assay [5] (cho-k1) and in assay [6] (cho-k1) were 10 nM, 1 nM and 1 nM, respectively. The Emax in assay [2] (filed as agonist) is 50%; in assay [3], > 80%; in assay [4] it was 25%.

Regarding `C[C@H](NC(=O)Cn1nc2cc(OC3COC3)ccn2c1=O)c1ccc(OC(F)(F)F)cc1`, the EC50 (usually the concentration needed to bring the measured effect to its halfway point) in assay [1] is ≥ 100 nM; in assay [5] (cho-k1), 1 nM; in assay [6] (cho-k1), 1 nM. Further, the Emax in assay [2] (filed as agonist) is > 80%; in assay [3] it was > 80%; in assay [4] (filed as agonist), 50%.

For `Cc1ccc([C@H](C)NC(=O)Cn2nc3ccccn3c2=O)cc1`, the values for the EC50 in assay [1] (cho-k1), in assay [5] (cho-k1) and in assay [6] (cho-k1) were 10 nM, 1 nM and 1 nM, respectively. The Emax in assay [2] (filed as agonist) is 50%; in assay [3], > 80%; in assay [4] (filed as agonist) it was 50%.

As for `C[C@H](NC(=O)Cn1nc2cccc(N3CCN(C)CC3)n2c1=O)c1ccc(OC(F)(F)F)cc1`, the EC50 was ≥ 100 nM in assay [1], ≥ 100 nM in assay [5] and 1 nM in assay [6] (cho-k1). Besides, the Emax is 50% in assay [2] (filed as agonist), > 80% in assay [3] and 25% in assay [4].

For the compound `Cc1cnn2c(=O)n(CC(=O)N[C@@H](C)c3ccc(Cl)c(F)c3)nc2c1C`, the EC50 in assay [1], in assay [5] and in assay [6] was < 1 nM throughout. In addition, the Emax in assay [2] (filed as agonist) was 50%; in assay [3], > 80%; in assay [4] (filed as agonist) it was > 80%.

For the compound `C[C@H](NC(=O)Cn1nc2ncccn2c1=O)c1ccc(C2CC2)cc1`, the EC50 in assay [1], in assay [5] and in assay [6] was ≥ 100 nM each time. The Emax was < 25% in assay [2], 50% in assay [3] and < 25% in assay [4].

On to `Cc1ccc([C@H](C)NC(=O)Cn2nc3ncccn3c2=O)cc1F`, for which the EC50 in assay [1] (cho-k1) came out at 10 nM; in assay [5] (cho-k1) it was 1 nM; in assay [6] (cho-k1) it was 1 nM. The figures for the Emax in assay [2] (filed as agonist), in assay [3] and in assay [4] (filed as agonist) were 50%, > 80% and 50%, respectively.

As to `C[C@H](NC(=O)Cn1nc2c(C3CC3)ccnn2c1=O)c1ccc(Cl)c(F)c1`, the EC50 is 1 nM in assay [1] (cho-k1), < 1 nM in assay [5] and < 1 nM in assay [6]. The Emax in assay [2] (filed as agonist), in assay [3] and in assay [4] (filed as agonist) was > 80% throughout.

Turning to `Cc1ccc([C@H](C)NC(=O)Cn2nc3cccnn3c2=O)cc1F`, the EC50 came to 10 nM in assay [1] (cho-k1), 1 nM in assay [5] (cho-k1) and 1 nM in assay [6] (cho-k1). Further, the Emax in assay [2] (filed as agonist) was 50%; in assay [3], > 80%; in assay [4] (filed as agonist), 50%.

As to `C[C@H](NC(=O)Cn1nc2cccnn2c1=O)c1ccc(OC(F)(F)F)c(F)c1`, the results for the EC50 in assay [1] (cho-k1), in assay [5] (cho-k1) and in assay [6] (cho-k1) were 10 nM, 1 nM and 1 nM, respectively. The Emax in assay [2] (filed as agonist) was 50%; in assay [3], > 80%; in assay [4] (filed as agonist), 50%.

Turning to `C[C@H](NC(=O)Cn1nc2ccc(F)cn2c1=O)c1ccc(Cl)cc1`, the EC50 in assay [1] (cho-k1) was 1 nM; in assay [5], < 1 nM; in assay [6], < 1 nM. Further, the Emax in assay [2] (filed as agonist) was 50%; in assay [3], > 80%; in assay [4] (filed as agonist) it was 50%.

As for `Cc1ccc([C@H](C)NC(=O)Cn2nc3cc(Cl)ccn3c2=O)cc1`, the EC50 in assay [1] (cho-k1) was 1 nM; in assay [5] (cho-k1) it was 1 nM; in assay [6], < 1 nM. Moreover, the Emax is 50% in assay [2] (filed as agonist), > 80% in assay [3] and 50% in assay [4] (filed as agonist).

Turning to `COc1ccn2c(=O)n(CC(=O)N[C@@H](C)c3ccc(OC(F)(F)F)cc3)nc2n1`, the EC50 in assay [1] is < 1 nM; in assay [5] (cho-k1), 1 nM; in assay [6], < 1 nM. Besides, the values for the Emax in assay [2], in assay [3] and in assay [4] were 25%, 50% and 25%, respectively.

In the case of `C[C@H](NC(=O)Cn1nc2cc(OC3CN(C)C3)ccn2c1=O)c1ccc(OC(F)(F)F)cc1`, the EC50 in assay [1] is ≥ 100 nM; in assay [5], ≥ 100 nM; in assay [6] (cho-k1) it was 10 nM. Moreover, the Emax in assay [2] (filed as agonist) is > 80%; in assay [3], 50%; in assay [4] (filed as agonist) it was 50%.

For `Cc1ccc([C@H](C)NC(=O)Cn2nc3ncccn3c2=O)cc1Cl`, the EC50 was ≥ 100 nM in assay [1], 10 nM in assay [5] (cho-k1) and 1 nM in assay [6] (cho-k1). The Emax in assay [2] (filed as agonist), in assay [3] and in assay [4] (filed as agonist) was > 80% each time.

For the compound `COc1ccn2c(=O)n(CC(=O)N[C@@H](C)c3ccc(OC(F)(F)F)cc3)nc2c1`, the values for the EC50 in assay [1] (cho-k1), in assay [5] and in assay [6] were 1 nM, < 1 nM and < 1 nM, respectively. In addition, the results for the Emax in assay [2] (filed as agonist), in assay [3] and in assay [4] (filed as agonist) were > 80%, > 80% and 50%, respectively.

As for `O=C(Cn1nc2cccnn2c1=O)NC1(c2cccc(Cl)c2)CC1`, the EC50 in assay [1], in assay [5] and in assay [6] was ≥ 100 nM throughout. Also, the figures for the Emax in assay [2], in assay [3] and in assay [4] (filed as agonist) were < 25%, 50% and 50%, respectively.

With `C[C@H](NC(=O)Cn1nc2ccccn2c1=O)c1ccc(Cl)c(F)c1`, the concentration giving a half-maximal response (EC50) in assay [1] (cho-k1) was 1 nM; in assay [5], < 1 nM; in assay [6] (cho-k1) it was 1 nM. Moreover, the Emax in assay [2] (filed as agonist), in assay [3] and in assay [4] (filed as agonist) was > 80% in each case.

As for `C[C@H](NC(=O)Cn1nc2ncccn2c1=O)c1ccc(C2CC2)c(F)c1`, the EC50 in assay [1] was ≥ 100 nM; in assay [5] (cho-k1) it was 10 nM; in assay [6] (cho-k1), 1 nM. Further, the maximal response (Emax) was 50% in assay [2] (filed as agonist), > 80% in assay [3] and 25% in assay [4].

Turning to `Cc1ccc([C@H](C)NC(=O)Cn2nc3c(C4CCN(C)C4)cccn3c2=O)cc1` (stereo partly drawn), the EC50 in assay [1], in assay [5] and in assay [6] was ≥ 100 nM each time. Also, the Emax in assay [2] turned out to be 25%; in assay [3] it was 50%; in assay [4] it was 25%.

For `C[C@H](NC(=O)Cn1nc2cc(N3CCC[C@H](O)C3)ccn2c1=O)c1ccc(OC(F)(F)F)cc1`, the EC50 was ≥ 100 nM in assay [1], 1 nM in assay [5] (cho-k1) and 1 nM in assay [6] (cho-k1). The Emax in assay [2] (filed as agonist), in assay [3] and in assay [4] (filed as agonist) was > 80% in each case.

In the case of `Cc1ncc([C@H](C)NC(=O)Cn2nc3cc(Cl)ccn3c2=O)cc1F`, the concentration giving a half-maximal response (EC50) was determined as 10 nM in assay [1] (cho-k1), 1 nM in assay [5] (cho-k1) and 1 nM in assay [6] (cho-k1). The results for the Emax in assay [2] (filed as agonist), in assay [3] and in assay [4] were 50%, > 80% and 25%, respectively.

With `CNc1ccnn2c(=O)n(CC(=O)N[C@@H](C)c3ccc(OC(F)(F)F)cc3)nc12`, the figures for the EC50 in assay [1] (cho-k1), in assay [5] (cho-k1) and in assay [6] were 10 nM, 1 nM and < 1 nM, respectively. Also, the Emax in assay [2] (filed as agonist) is 50%; in assay [3], > 80%; in assay [4] (filed as agonist), 50%.

Turning to `C[C@H](NC(=O)Cn1nc2c(I)ccnn2c1=O)c1ccc(OC(F)(F)F)cc1`, the 50% effective concentration (EC50) in assay [1] is ≥ 100 nM; in assay [5] (cho-k1), 10 nM; in assay [6], < 1 nM. The figures for the Emax in assay [2], in assay [3] and in assay [4] (filed as agonist) were < 25%, 50% and 25%, respectively.

Regarding `C[C@H](NC(=O)Cn1nc2c(OC3CN(C)C3)nccn2c1=O)c1ccc(Cl)c(F)c1`, the EC50 in assay [1], in assay [5] and in assay [6] was ≥ 100 nM throughout. The Emax was 25% in assay [2], 50% in assay [3] and > 80% in assay [4] (filed as agonist).

As for `C[C@H](NC(=O)Cn1nc2ccc(C#N)cn2c1=O)c1ccc(Cl)c(F)c1`, the results for the EC50 in assay [1] (cho-k1), in assay [5] (cho-k1) and in assay [6] were 1 nM, 1 nM and < 1 nM, respectively. The Emax in assay [2] (filed as agonist) was > 80%; in assay [3], > 80%; in assay [4] (filed as agonist), 50%.

Take `Cc1ccc([C@H](C)NC(=O)Cn2nc3cccc(F)n3c2=O)cc1`: the values for the EC50 in assay [1] (cho-k1), in assay [5] (cho-k1) and in assay [6] (cho-k1) were 10 nM, 1 nM and 1 nM, respectively. Also, the results for the Emax in assay [2] (filed as agonist), in assay [3] and in assay [4] were 50%, > 80% and 25%, respectively.

The record behind these values is ChEMBL document CHEMBL4739716, “Gpr139 receptor modulators” (2020).
